l = locked nucleic acid (LNA); d = 2'-deoxy (DNA)
How the values were obtained:
hCD39 mRNA [1] = test: hCD39 mRNA knockdown efficacy screen in A-172 cells (single dose, gymnotic delivery, QuantiGene Singleplex); type: cell-based, human; conditions: 10 μM, 3 days; for Relative hCD39 mRNA expression (compared to non-treated cells): second screening round; for Relative hCD39 mRNA expression (compared to non-treated cells) / Mean hCD39 mRNA expression (relative to untreated cells set as 1): normalized to HPRT1; for Mean hCD39 mRNA expression (relative to untreated cells set as 1): first screening round
Method: (§1) FIGS. 2A to 2D depict hCD39 mRNA knockdown efficacy of hCD39 antisense oligonucleotides in human cancer cell lines HDLM-2 (human Hodgkin Lymphoma) in a first and second screening round (FIGS. 2A-1 and 2A-2) and 2B-1 and 2B-2 and A-172 (human glioblastoma) in a first and second screening round (FIGS. 2C-1 and 2C-2) and 2D-1 and 2D-2. HDLM-2 and A-172 cells were treated for 3 days with 10 μM of the respective antisense oligonucleotide. As negative control, cells were treated with neg1, an antisense oligonucleotide having the sequence CGTTTAGGCTATGTACTT (SEQ ID NO:99) (described in WO2014154843 A1). Residual hCD39 mRNA expression relative to untreated cells is depicted. Expression values were normalized to expression of the housekeeping gene HPRT1. Depicted is the mean of triplicate wells+/−SD.
(§2) FIGS. 6A-6B depicts a third screening round where further antisense oligonucleotides were designed. These antisense oligonucleotides were based on efficient antisense oligonucleotides from the first and second screening round. Therefore, hCD39 antisense oligonucleotides were tested in human cancer cell lines HDLM-2 (human Hodgkin's lymphoma) (FIG. 6A) and A-172 (human glioblastoma) (FIG. 6B). HDLM-2 and A-172 cells were treated for 3 days with 10 μM of the respective antisense oligonucleotide. […] Residual hCD39 mRNA expression relative to untreated cells (set as 1) is depicted.
(§3) In order to analyze the efficacy of hCD39 antisense oligonucleotides of the present invention with regard to the knockdown of hCD39 mRNA expression in cancer cell lines, HDLM-2 (human Hodgkin Lymphoma, DSMZ) and A-172 (human glioblastoma, ATCC) cells were treated with a single dose (concentration: 10 μM without addition of any transfection reagent; this process is called gymnotic delivery) of the respective antisense oligonucleotide as shown in FIG. 2A to 2D. hCD39 and HPRT1 mRNA expression was analyzed three days later using the QuantiGene Singleplex assay (Affymetrix) and hCD39 expression values were normalized to HPRT1 values. […] Values of the mean normalized mRNA expression of hCD39 compared to non-treated cells are listed for A-172 (Table 4 for first screening round and Table 5 for second screening round) and HDLM-2 cells (Table 6 for first screening round and Table 7 for second screening round) in the following:
(§4) For a third screening round, new antisense oligonucleotides were designed. These antisense oligonucleotides were based on efficient antisense oligonucleotides from the first screening round with modifications in length, exact position on mRNA and chemical modification pattern. Therefore, hCD39 antisense oligonucleotides were tested in human cancer cell lines (FIG. 6A, Table 10) HDLM-2 (human Hodgkin's lymphoma) and (FIG. 6B, Table 11) A-172 (human glioblastoma). HDLM-2 and A-172 cells were treated for 3 days with 10 μM of the respective antisense oligonucleotide. […] Residual hCD39 mRNA expression relative to untreated cells (set as 1) is depicted.

hCD39 mRNA [2] = test: hCD39 mRNA knockdown efficacy screen in HDLM-2 cells (single dose, gymnotic delivery, QuantiGene Singleplex); type: cell-based, human; design: key to Relative hCD39 mRNA expression (compared to non-treated cells): *: values are below detection limit; conditions: 10 μM, 3 days; for Relative hCD39 mRNA expression (compared to non-treated cells): second screening round, normalized to HPRT1; for Mean hCD39 mRNA expression normalized to HPRT1 relative to untreated control = 1: first screening round
Method: as §1, §2, §3, §4

Substance	Relative hCD39 mRNA expression (compared to non-treated cells) (hCD39 mRNA [1])	Relative hCD39 mRNA expression (compared to non-treated cells) (hCD39 mRNA [2])	Mean hCD39 mRNA expression normalized to HPRT1 relative to untreated control = 1 (hCD39 mRNA [2])	Mean hCD39 mRNA expression (relative to untreated cells set as 1) (hCD39 mRNA [1])	Residual hCD39 mRNA expression relative to untreated cells (set as 1) (hCD39 mRNA [1]; third screening round)	Residual hCD39 mRNA expression relative to untreated cells (set as 1) (hCD39 mRNA [2]; third screening round)
+C*+C*C*T*G*G*A*T*C*T*T*G*C*C*+A*+A*+T (antisense CCCTGGATCTTGCCAAT; sugars from the 5' end l2 d12 l3, all phosphorothioate, methylation of C not given here) [A04049H]	0.45	*	–	–	–	–
+A*+G*T*C*C*A*G*C*C*G*G*C*G*T*+C (antisense AGTCCAGCCGGCGTC; sugars from the 5' end l2 d12 l1, all phosphorothioate, methylation of C not given here) [A04015H]	1.05	0.29	0.29	–	–	–
+C*T*+T*G*C*C*A*T*A*G*A*G*G*C*+G*A*+A (antisense CTTGCCATAGAGGCGAA; sugars from the 5' end ldldddddddddddldl, all phosphorothioate, methylation of C not given here) [A04041H]	0.24	*	0.18	0.46	–	–
+A*+C*+G*T*T*C*A*C*T*A*C*C*T*T*+C*+T*+T (antisense ACGTTCACTACCTTCTT; sugars from the 5' end l3 d11 l3, all phosphorothioate, methylation of C not given here) [A04043H]	0.11	*	0.04	0.21	–	–
+A*+G*G*A*T*A*G*T*C*T*T*G*T*C*+T*+C (antisense AGGATAGTCTTGTCTC; sugars from the 5' end l2 d12 l2, all phosphorothioate, methylation of C not given here) [A04034H]	0.15	0.06	0.06	0.28	–	–
+C*C*T*A*C*C*C*A*G*G*A*T*A*G*+T*+C (antisense CCTACCCAGGATAGTC; sugars from the 5' end l1 d13 l2, all phosphorothioate, methylation of C not given here) [A04035H]	0.37	0.18	0.17	–	–	–
+G*T*+C*A*A*T*C*C*T*G*C*T*C*A*+A*+C (antisense GTCAATCCTGCTCAAC; sugars from the 5' end l1 d1 l1 d11 l2, all phosphorothioate, methylation of C not given here) [A04038H]	0.29	*	0.20	0.56	–	–
+T*+T*+T*G*T*G*T*G*A*G*A*G*+C*+T*+T (antisense TTTGTGTGAGAGCTT; sugars from the 5' end l3 d9 l3, all phosphorothioate, methylation of C not given here) [A04058H]	–	–	–	–	0.25	0.01
+T*+A*+C*T*C*C*A*G*C*G*T*A*A*+G*+A*+T (antisense TACTCCAGCGTAAGAT; sugars from the 5' end l3 d10 l3, all phosphorothioate, methylation of C not given here) [A04027H]	0.58	0.24	0.24	0.58	–	–
+A*+C*+T*A*T*G*C*T*G*A*A*C*C*A*+C*+C (antisense ACTATGCTGAACCACC; sugars from the 5' end l3 d11 l2, all phosphorothioate, methylation of C not given here) [A04022H]	0.15	0.09	0.09	0.14	–	–
+A*+G*A*G*T*G*C*C*T*G*A*T*C*C*+T*+T (antisense AGAGTGCCTGATCCTT; sugars from the 5' end l2 d12 l2, all phosphorothioate, methylation of C not given here) [A04025H]	0.13	0.08	0.08	0.13	–	–
+T*+A*G*A*C*A*T*T*G*T*A*G*+T*+C*+C (antisense TAGACATTGTAGTCC; sugars from the 5' end l2 d10 l3, all phosphorothioate, methylation of C not given here) [A04009H]	0.29	0.15	0.15	0.28	–	–
+A*+T*+G*T*A*G*C*C*C*A*A*A*G*T*+C*+C (antisense ATGTAGCCCAAAGTCC; sugars from the 5' end l3 d11 l2, all phosphorothioate, methylation of C not given here) [A04028H]	0.29	0.07	0.07	0.29	–	–
+G*+C*C*A*T*A*G*G*C*A*C*C*+T*+T*+C (antisense GCCATAGGCACCTTC; sugars from the 5' end l2 d10 l3, all phosphorothioate, methylation of C not given here) [A04004H]	0.66	0.21	0.22	0.65	–	–
+G*+C*+C*T*T*G*A*A*C*A*C*T*G*C*+G*+A (antisense GCCTTGAACACTGCGA; sugars from the 5' end l3 d11 l2, all phosphorothioate, methylation of C not given here) [A04032H]	0.10	0.01	0.06	0.19	–	–
+A*+G*+C*G*T*A*A*G*A*T*G*T*+T*+T*+T (antisense AGCGTAAGATGTTTT; sugars from the 5' end l3 d9 l3, all phosphorothioate, methylation of C not given here) [A04012H]	0.43	0.10	0.11	0.43	–	–
+A*+G*+C*C*T*A*T*G*A*T*G*G*C*C*+A*+C (antisense AGCCTATGATGGCCAC; sugars from the 5' end l3 d11 l2, all phosphorothioate, methylation of C not given here) [A04031H]	0.55	*	–	–	–	–
+A*+C*+T*C*C*A*G*C*G*T*A*A*+G*+A*+T (antisense ACTCCAGCGTAAGAT; sugars from the 5' end l3 d9 l3, all phosphorothioate, methylation of C not given here) [A04013H]	0.75	0.22	0.22	–	–	–

— US11959083B2, “Immunosuppression-reverting oligonucleotides inhibiting the expression of CD39” (Secarna Pharmaceuticals GmbH & Co. KG, priority 2016, dated 2024)
